The values that follow come from patent US11572590B2, “Methods for evaluating tumor cell spheroids using 3D microfluidic cell culture device” (Dana-Farber Cancer Institute, Inc., priority 2017, dated 2023).

Holding throughout (assay): SelectScreen Kinase Profiling, single point inhibition and IC50 for off-target kinases
Holding throughout (type): biochemical

In assay [1] the target is off-target kinases (Homo sapiens, UniProt P30530). The conditions noted are these: AXL, ZLYTE, ATP Km app.
The target in assay [2] is off-target kinases (Homo sapiens, UniProt P42685). The conditions noted are these: FRK (PTK5), ZLYTE, ATP Km app.
Assay [3] has as its target off-target kinases (Homo sapiens, UniProt Q04759). The conditions noted are these: PRKCQ (PKC theta); Cmpd1 1000 μM; ATP Km app; ZLYTE.
Assay [4] addresses T1, off-target kinases (Homo sapiens, UniProt Q15835).
T1 sequence (Q15835 1-563): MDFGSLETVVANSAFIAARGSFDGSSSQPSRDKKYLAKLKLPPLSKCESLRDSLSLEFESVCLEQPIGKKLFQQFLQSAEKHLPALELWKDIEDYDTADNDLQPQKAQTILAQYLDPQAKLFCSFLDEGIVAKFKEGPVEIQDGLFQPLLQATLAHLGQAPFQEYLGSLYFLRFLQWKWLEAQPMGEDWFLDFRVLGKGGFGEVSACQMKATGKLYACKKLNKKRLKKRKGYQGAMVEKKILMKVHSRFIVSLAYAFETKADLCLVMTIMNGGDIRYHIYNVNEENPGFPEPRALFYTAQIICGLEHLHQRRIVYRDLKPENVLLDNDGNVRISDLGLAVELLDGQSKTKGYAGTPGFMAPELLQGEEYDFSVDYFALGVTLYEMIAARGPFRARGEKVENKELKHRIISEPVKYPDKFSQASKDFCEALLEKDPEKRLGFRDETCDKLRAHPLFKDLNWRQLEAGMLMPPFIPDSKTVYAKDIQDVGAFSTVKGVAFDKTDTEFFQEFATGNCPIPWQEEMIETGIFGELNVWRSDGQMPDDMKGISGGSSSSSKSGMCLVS
The conditions noted are these: GRK1, LanthaScreen Binding. (In general: In TR-FRET formats the signal depends on donor and acceptor labels being close together.)

The target of assay [5] is off-target kinases (Homo sapiens, UniProt Q8IU85). The conditions noted are these: CAMK1D (CaMKI delta), ZLYTE, ATP Km app.
Assay [6] deals with T2, off-target kinases (Homo sapiens, UniProt Q96PF2).
T2 sequence (Q96PF2 1-358): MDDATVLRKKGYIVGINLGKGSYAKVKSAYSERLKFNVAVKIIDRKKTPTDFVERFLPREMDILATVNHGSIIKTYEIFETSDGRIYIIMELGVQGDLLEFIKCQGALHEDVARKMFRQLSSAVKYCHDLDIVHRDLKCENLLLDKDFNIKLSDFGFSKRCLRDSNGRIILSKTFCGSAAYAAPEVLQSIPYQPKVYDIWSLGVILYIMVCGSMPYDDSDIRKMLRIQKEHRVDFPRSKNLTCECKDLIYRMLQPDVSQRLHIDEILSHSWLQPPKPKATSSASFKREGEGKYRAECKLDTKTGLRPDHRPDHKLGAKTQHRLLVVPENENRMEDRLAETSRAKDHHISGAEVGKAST
The conditions noted are these: STK22B (TSSK2), ZLYTE, ATP Km app.

Assay [7] has as its target off-target kinases (Homo sapiens, UniProt Q9HAZ1). The conditions noted are these: CLK4, LanthaScreen Binding.

Read-outs that look alike come from different tables or passages of the source.

Chain of off-target kinases (Homo sapiens, UniProt Q04759) (Q04759 whole entry): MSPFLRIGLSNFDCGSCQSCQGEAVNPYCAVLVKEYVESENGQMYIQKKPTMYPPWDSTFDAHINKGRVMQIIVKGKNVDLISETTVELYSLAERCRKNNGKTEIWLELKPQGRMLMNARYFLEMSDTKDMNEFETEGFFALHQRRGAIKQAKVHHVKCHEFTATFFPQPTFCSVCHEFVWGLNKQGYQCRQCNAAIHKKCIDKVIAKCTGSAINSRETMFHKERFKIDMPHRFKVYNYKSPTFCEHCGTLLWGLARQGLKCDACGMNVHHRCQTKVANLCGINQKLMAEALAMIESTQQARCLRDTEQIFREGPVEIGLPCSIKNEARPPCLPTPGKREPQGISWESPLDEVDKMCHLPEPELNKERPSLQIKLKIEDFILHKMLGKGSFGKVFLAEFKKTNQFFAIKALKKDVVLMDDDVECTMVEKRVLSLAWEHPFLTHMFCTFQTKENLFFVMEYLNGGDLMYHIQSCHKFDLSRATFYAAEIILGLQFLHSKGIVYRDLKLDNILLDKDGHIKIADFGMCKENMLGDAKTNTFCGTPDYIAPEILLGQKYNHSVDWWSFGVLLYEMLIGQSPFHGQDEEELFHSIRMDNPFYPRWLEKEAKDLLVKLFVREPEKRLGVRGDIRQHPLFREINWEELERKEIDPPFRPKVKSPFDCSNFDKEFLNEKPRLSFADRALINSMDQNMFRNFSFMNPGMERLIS
Chain of off-target kinases (Homo sapiens, UniProt P30530) (P30530 26-894): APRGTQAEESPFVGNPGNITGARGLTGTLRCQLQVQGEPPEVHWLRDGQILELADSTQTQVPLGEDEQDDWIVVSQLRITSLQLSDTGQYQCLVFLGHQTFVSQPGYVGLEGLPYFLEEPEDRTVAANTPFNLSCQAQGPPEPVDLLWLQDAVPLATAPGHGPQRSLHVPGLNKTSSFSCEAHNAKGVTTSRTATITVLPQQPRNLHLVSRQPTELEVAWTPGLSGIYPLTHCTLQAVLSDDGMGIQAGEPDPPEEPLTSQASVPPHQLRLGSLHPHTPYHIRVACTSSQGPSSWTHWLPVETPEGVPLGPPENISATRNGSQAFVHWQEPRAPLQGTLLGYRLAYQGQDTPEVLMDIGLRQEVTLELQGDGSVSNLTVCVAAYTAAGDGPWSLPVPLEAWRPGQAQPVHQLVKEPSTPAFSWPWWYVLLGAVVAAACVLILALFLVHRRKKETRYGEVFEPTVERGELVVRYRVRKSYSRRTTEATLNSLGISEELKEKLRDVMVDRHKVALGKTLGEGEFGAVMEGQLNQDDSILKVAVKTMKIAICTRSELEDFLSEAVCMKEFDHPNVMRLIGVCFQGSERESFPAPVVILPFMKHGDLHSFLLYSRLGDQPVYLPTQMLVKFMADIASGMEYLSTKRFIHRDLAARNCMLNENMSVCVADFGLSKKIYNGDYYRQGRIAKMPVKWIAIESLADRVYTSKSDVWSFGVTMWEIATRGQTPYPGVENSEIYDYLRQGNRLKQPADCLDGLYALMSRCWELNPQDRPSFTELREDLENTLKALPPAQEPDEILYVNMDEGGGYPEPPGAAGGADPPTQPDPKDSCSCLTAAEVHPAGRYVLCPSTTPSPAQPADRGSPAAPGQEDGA
Chain of off-target kinases (Homo sapiens, UniProt Q8IU85) (Q8IU85 whole entry): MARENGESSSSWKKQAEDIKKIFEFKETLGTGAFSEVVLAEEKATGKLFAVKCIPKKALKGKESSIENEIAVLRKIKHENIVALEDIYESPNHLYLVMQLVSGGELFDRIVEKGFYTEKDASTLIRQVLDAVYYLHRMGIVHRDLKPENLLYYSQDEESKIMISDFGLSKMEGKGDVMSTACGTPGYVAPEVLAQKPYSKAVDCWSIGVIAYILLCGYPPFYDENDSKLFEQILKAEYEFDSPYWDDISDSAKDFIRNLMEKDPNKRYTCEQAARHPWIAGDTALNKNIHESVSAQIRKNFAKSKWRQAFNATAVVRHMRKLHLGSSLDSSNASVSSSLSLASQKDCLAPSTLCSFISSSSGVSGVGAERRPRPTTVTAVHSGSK
Chain of off-target kinases (Homo sapiens, UniProt P42685) (P42685 whole entry): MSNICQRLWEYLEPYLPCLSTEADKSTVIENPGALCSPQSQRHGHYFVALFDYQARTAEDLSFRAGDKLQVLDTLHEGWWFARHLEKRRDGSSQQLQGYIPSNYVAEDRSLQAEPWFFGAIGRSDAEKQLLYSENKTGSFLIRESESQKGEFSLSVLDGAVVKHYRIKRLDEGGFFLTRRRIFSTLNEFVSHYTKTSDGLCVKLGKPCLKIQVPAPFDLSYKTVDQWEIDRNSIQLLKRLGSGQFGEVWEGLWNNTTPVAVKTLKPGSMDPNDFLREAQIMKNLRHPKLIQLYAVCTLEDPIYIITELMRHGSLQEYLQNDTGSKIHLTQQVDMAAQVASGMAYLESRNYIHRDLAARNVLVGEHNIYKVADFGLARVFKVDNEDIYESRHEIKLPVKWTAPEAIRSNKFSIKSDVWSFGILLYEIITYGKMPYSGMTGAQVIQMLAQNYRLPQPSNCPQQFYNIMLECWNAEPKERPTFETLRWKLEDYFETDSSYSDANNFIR
Chain of off-target kinases (Homo sapiens, UniProt Q9HAZ1) (Q9HAZ1 whole entry): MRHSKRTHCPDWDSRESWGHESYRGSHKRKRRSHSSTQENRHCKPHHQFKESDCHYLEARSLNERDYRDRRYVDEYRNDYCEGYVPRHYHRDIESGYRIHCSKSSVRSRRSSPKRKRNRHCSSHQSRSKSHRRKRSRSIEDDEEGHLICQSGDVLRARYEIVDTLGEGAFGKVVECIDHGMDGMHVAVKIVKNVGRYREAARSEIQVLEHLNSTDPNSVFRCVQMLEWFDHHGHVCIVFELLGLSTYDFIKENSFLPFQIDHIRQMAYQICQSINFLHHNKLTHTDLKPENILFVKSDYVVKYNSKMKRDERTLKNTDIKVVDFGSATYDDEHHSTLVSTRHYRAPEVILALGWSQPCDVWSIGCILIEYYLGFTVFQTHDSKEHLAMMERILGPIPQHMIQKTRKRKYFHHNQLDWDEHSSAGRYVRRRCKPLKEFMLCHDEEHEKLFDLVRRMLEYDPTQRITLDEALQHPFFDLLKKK

For orientation: inhibition means the share of the control response that was lost under treatment. As to `N#Cc1cc(-c2ncnc(Nc3ccc(N4CCN(C5COC5)CC4)cc3)n2)ccc1OC1CCOCC1` [Compound 1, 5-(4-((4-(4-(oxetan-3-yl)piperazin-1-yl)phenyl)amino)-1,3,5-triazin-2-yl)-2-((tetrahydro-2H-pyran-4-yl)oxy)benzonitrile], the inhibition in assay [1] (read-out: % Inhibition 1) worked out at 22%; in assay [1] (read-out: % Inhibition 2) it was 25%; in assay [1] (read-out: % Inhibition Avg), 24%; in assay [2] (read-out: % Inhibition 1) it was 11%; in assay [2] (read-out: % Inhibition 2) it was 13%; in assay [2] (read-out: % Inhibition Avg), 12%. The inhibition in assay [4] (read-out: % Inhibition 1) stood at 7%; in assay [4] (read-out: % Inhibition 2), 2%; in assay [4] (read-out: % Inhibition Avg), 5%; in assay [5] (read-out: % Inhibition 1) it was 12%; in assay [5] (read-out: % Inhibition 2), 13%; in assay [5] (read-out: % Inhibition Avg), 12%. For the same compound, the inhibition in assay [6] (read-out: % Inhibition 1) came to 12%; in assay [6] (read-out: % Inhibition 2), 14%; in assay [6] (read-out: % Inhibition Avg), 13%; in assay [7] (read-out: % Inhibition 1) it was 87%; in assay [7] (read-out: % Inhibition 2), 89%; in assay [7] (read-out: % Inhibition Avg) it was 88%. In assay [3], the “% Inhibition 1” value is recorded as −6%. Also, the “% Inhibition 2” value in assay [3] was −17%. Besides, in assay [3], the “% Inhibition Avg” value is reported as −12%.
